{
  "source": "ChEMBL document CHEMBL1201862",
  "about": "“PubChem BioAssay data set” (2004)",
  "key": {"[1]": {"test": "MC4R antagonists, dose response, counter-screen for LGR2 antagonist project, cell-based, plate reader, cherry pick (AID 743444);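 further: transfected HEK 293 cells stimulated with alpha-MSH peptide; potency of inhibitors of the alpha-MSH evoked signal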", "assay_type": "functional"}, "[2]": {"test": "LGR2 antagonists, dose response, cell-based, HEK293, CRE-luciferase reporter, cherry pick, set 2 (AID 743343);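 further: transfected cells were stimulated with diluted bursicon conditioned medium after compound addition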", "assay_type": "functional"}, "[3]": {"target": "T1, Galanin receptor type 3 (Homo sapiens, UniProt O60755)", "T1 sequence (O60755 whole entry)": "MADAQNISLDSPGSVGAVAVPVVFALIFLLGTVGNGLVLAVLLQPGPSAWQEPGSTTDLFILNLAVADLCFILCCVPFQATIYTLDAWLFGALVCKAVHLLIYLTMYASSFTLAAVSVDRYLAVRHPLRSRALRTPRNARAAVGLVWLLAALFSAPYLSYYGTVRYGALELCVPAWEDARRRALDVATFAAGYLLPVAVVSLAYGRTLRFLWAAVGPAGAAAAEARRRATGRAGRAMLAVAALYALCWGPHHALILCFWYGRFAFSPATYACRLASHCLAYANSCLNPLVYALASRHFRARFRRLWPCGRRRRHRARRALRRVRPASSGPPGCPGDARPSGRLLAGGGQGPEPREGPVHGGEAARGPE", "test": "Fluorescence-based cell-based primary high throughput dose response assay to identify antagonists of the Galanin Receptor 3 (GalR3).", "assay_type": "functional"}, "[4]": {"test": "inhibitors of intracellular T. cruzi replication, confirmation, NIH3T3 host cells, beta-gal luminescence (AID 2044);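 further: luminescent beta-galactosidase reporter signal from transgenic T. cruzi replicating inside host cells; inhibitors lower the luminescence signal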", "assay_type": "functional, cell-based"}, "[5]": {"tested_on": "BJ", "test": "cells", "assay_type": "functional, cell-based", "conditions": "Homo sapiens"}, "[6]": {"test": "cells", "assay_type": "functional, cell-based", "conditions": "HEK-CNG"}, "[7]": {"tested_on": "BJ", "test": "cytotoxicity toward BJ-TERT-LT-ST fibroblasts, dose response, cell-based, RAS-independent, luminescence (AID 1935);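 further: BJ fibroblasts immortalized with TERT plus LT and ST oncogenes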", "assay_type": "functional", "conditions": "Homo sapiens"}, "[8]": {"tested_on": "BJ", "test": "cytotoxicity toward BJ-TERT fibroblasts, dose response, cell-based, RAS-independent, luminescence (AID 1933)", "assay_type": "functional", "conditions": "Homo sapiens"}, "[9]": {"target": "Paired box protein Pax-8 (Homo sapiens, UniProt Q06710)", "sequence (Q06710 whole entry)": "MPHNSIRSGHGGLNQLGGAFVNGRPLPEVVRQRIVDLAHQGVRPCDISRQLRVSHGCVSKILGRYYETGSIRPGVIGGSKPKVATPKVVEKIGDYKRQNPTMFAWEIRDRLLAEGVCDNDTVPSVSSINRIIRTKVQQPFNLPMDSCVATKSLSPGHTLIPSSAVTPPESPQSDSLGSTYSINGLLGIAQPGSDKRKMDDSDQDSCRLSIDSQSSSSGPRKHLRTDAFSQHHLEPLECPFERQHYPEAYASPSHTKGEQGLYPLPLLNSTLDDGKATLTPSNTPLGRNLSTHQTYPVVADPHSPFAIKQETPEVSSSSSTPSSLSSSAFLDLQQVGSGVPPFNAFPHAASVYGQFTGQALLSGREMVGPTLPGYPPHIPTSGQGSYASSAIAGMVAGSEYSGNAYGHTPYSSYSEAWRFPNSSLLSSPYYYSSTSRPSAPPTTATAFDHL", "test": "inhibitors of PAX8-driven TPO luciferase reporter, dose response, RMG-I cells, cherry-pick (AID 687027);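 further: luciferase reporter driven by Pax8 target thyroperoxidase promoter measured by SteadyGlo luminescence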", "assay_type": "functional, cell-based"}, "[10]": {"tested_on": "INS1", "test": "beta cell apoptosis inhibitors, cytokine rescue, dose response, luminescence, retest (AID 449756);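 further: cell death triggered by IL-1 beta plus TNF-alpha plus IFN-gamma mixture; protective hits raise ATP signal compared with cytokine alone wells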", "assay_type": "functional, cell-based", "conditions": "Rattus norvegicus"}, "[11]": {"test": "cytotoxicity toward NIH3T3 fibroblasts, dose response, counter-screen, cell-based, ATP luminescence, mouse fibroblasts (AID 2010);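 further: cells exposed to compound for about 90 hours before reading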", "assay_type": "functional"}, "[12]": {"test": "cytotoxicity toward DRD oncogenic fibroblasts, dose response, cell-based, non-viral oncogenic, luminescence (AID 1934)", "assay_type": "functional", "conditions": "Homo sapiens"}, "[13]": {"target": "T2, COUP transcription factor 2 (Homo sapiens, UniProt P24468)", "T2 sequence (P24468 whole entry)": "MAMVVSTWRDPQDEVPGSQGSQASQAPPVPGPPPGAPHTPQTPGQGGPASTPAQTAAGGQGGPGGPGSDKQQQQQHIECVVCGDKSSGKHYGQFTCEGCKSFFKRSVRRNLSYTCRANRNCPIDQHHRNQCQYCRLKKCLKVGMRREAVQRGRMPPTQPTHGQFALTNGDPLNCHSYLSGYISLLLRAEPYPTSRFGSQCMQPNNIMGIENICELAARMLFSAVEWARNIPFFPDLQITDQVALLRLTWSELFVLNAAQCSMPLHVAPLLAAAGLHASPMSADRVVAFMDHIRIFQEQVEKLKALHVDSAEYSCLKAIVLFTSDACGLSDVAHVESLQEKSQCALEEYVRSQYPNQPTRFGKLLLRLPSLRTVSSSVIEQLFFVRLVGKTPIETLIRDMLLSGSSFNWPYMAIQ", "test": "Luminescence-based cell-based high throughput dose response assay to identify inhibitors of COUP-TFII (NR2F2).", "assay_type": "functional"}, "[14]": {"target": "T3, RNA-editing ligase 1, mitochondrial (Trypanosoma brucei brucei, UniProt P86926)", "T3 sequence (P86926 whole entry)": "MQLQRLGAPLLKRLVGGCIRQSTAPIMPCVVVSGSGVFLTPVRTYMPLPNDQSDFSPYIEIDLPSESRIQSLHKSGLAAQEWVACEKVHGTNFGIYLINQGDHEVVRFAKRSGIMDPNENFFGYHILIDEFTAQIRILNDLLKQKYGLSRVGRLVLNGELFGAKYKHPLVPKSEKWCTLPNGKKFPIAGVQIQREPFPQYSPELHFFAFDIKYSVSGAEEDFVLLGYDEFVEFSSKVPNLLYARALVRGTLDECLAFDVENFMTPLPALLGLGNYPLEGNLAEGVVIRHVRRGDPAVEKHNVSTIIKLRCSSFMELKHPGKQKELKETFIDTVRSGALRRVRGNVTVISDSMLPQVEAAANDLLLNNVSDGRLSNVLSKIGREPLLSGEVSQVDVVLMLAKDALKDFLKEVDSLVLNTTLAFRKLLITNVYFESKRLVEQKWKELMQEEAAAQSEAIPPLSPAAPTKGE", "test": "TbREL1 ligase inhibitors, dose response, biochemical, fluorescence, Trypanosoma brucei (AID 1117295)", "assay_type": "functional"}, "[15]": {"tested_on": "Vero", "test": "host cell cytotoxicity of antiviral hits, dose response, cytotoxicity control for West Nile virus antiviral project, secondary assay (AID 1650)", "assay_type": "functional", "conditions": "Chlorocebus sabaeus"}, "[16]": {"test": "A Cell Based Secondary Assay To Explore Cytotoxicity of Compounds that Sensitize Mycobacterium Tuberculosis to Beta-Lactam Antibiotics.", "assay_type": "functional"}, "[17]": {"test": "inhibitors of Vif binding to APOBEC3G peptide, primary screen, biochemical, TR-FRET, GST-Vif 1-94, biotin-A3G peptide, dose response retest (AID 1117319);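 further: TR-FRET signal of purified GST-Vif binding a biotinylated A3G peptide; inhibitors lower the FRET signal by blocking Vif and A3G binding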", "assay_type": "functional"}, "[18]": {"tested_on": "HEK293", "test": "HEK293T cell cytotoxicity, dose response, cytotoxicity control, ATP luminescence, cherry-pick samples (AID 687005);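 further: cells exposed to compound for 48 hours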", "assay_type": "functional, cell-based", "conditions": "Homo sapiens"}, "[19]": {"test": "HEK293 Cytotoxicity Assay Measured in Cell-Based System Using Plate Reader - 7071-01_Inhibitor_Dose_CherryPick_Activity_Set2.", "assay_type": "functional"}},
  "note": "Calls of active or inactive are those of the source.",
  "data": [
    {"smiles": "O=C(Nc1ccc(N2CCN(C(=O)c3ccc(Cl)cc3)CC2)cc1)c1cc2ccccc2o1", "values": [
      {"measurement": "AC50", "setting": "[1]", "result": "28.6 µM (active)"},
      {"measurement": "AC50", "setting": "[2]", "result": "29.4 µM (active)"}
    ]},
    {"smiles": "O=C(NC(Nc1nc2ccc([N+](=O)[O-])cc2s1)(C(F)(F)F)C(F)(F)F)c1cccnc1", "values": [
      {"measurement": "IC50", "setting": "[3]", "result": "> 1.11 µM (active)"},
      {"measurement": "EC50", "setting": "[4]", "result": "1.38 µM (active)"},
      {"measurement": "EC50", "setting": "[5]", "result": "4.98 µM (active)"},
      {"measurement": "EC50", "setting": "[6]", "result": "> 29.9 µM (inactive)"},
      {"measurement": "EC50", "setting": "[7]", "result": "11.4 µM (active)"},
      {"measurement": "EC50", "setting": "[8]", "result": "8.85 µM (inconclusive)"},
      {"measurement": "AC50", "setting": "[9]", "result": "1.86 µM (active)"},
      {"measurement": "AC50", "setting": "[10]", "result": "2.6 µM (active)"},
      {"measurement": "EC50", "setting": "[11]", "result": "< 6 µM (inconclusive)"},
      {"measurement": "EC50", "setting": "[12]", "result": "10.4 µM (active)"},
      {"measurement": "IC50", "setting": "[13]", "result": "8.8 µM (active)"}
    ]},
    {"smiles": "COC(=O)C1=C(C)N(Cc2ccccc2C(F)(F)F)C(NCc2cccc(C(F)(F)F)c2)=NC1c1ccc(C(F)(F)F)cc1", "note": "(centres undefined)", "values": [
      {"measurement": "IC50", "setting": "[14]", "result": "> 96.6 µM (inactive)"}
    ]},
    {"smiles": "O=C(Nc1cccc(C(F)(F)F)c1)N1CCC(c2nc(-c3ccc(F)cc3)no2)CC1", "values": [
      {"measurement": "CC50", "setting": "[15]", "result": "12.6 µM (active)"},
      {"measurement": "CC50", "setting": "[16]", "result": "> 40 µM (active)"}
    ]},
    {"smiles": "Cc1cc(C)nc(N2CCC(C(=O)O)CC2)n1", "values": [
      {"measurement": "IC50", "setting": "[17]", "result": "> 100 µM (active)"}
    ]},
    {"smiles": "C[C@@H]1CCCCO[C@H](CN(C)C(=O)Nc2ccc(F)cc2)[C@H](C)CN([C@@H](C)CO)C(=O)c2cc(NS(=O)(=O)c3ccc(Cl)cc3)ccc2O1", "values": [
      {"measurement": "AC50", "setting": "[18]", "result": "21.9 µM (active)"},
      {"measurement": "AC50", "setting": "[19]", "result": "21.9 µM (active)"}
    ]}
  ]
}
